{"source": "patent US20260199482A1", "about": "“BILE ACID-METRONIDAZOLE CONJUGATE AND USE THEREOF” (SOUTH CHINA UNIVERSITY OF TECHNOLOGY, priority 2022, published 2026)", "key": {"[1]": {"system": "Clostridioides difficile ATCC 43255", "experiment": "MIC determination using broth microdilution method, anaerobic bacteria", "assay_type": "cell-based", "conditions": "ATCC43255; Clostridioides difficile ATCC 43255; broth microdilution, anaerobic, 37° C., 48 h", "method": "0.10 g of sterile cycloserine and 3.20 mg of sterile cefoxitin (filtered by a filter membrane and sterilized) were added to every 200 mL, mixed well, and poured into a sterile petri dish for later use.\nS3, culture of Clostridioides difficile strain: 1) the strain stored at −80° C. was resuscitated in an anaerobic glove box with a cycloserine-cefoxitin-fructose agar medium plate, and statically cultured at 37° C. in a constant-temperature incubator for 48 h; • 2) single colonies were picked, and statically cultured in the brain heart infusion broth medium overnight at 37° C. in the constant-temperature incubator; and • 3) the bacterial solution that was statically cultured overnight was transferred into the anaerobic glove box with the brain heart infusion broth medium at a ratio of 1:100, and cultured for 3-4 h until the OD600 was between 0.6 and 0.8; and during this process, 5 g/L of yeast extract solution was added to increase a strain concentration.\n(§1) The culture process of the strain was operated in the anaerobic glove box. After the operation was completed, the strain was well sealed with an anaerobic bag or an anaerobic box, taken out and then cultured in the constant-temperature incubator."}, "[2]": {"system": "Bacteroides fragilis ATCC 25285", "experiment": "MIC determination using broth microdilution method, anaerobic bacteria", "assay_type": "cell-based", "conditions": "ATCC25285; Bacteroides fragilis ATCC 25285; broth microdilution, anaerobic, 37° C., 48 h; read-out: MIC", "method": "as §1"}, "[3]": {"system": "Porphyromonas gingivalis ATCC 33277", "experiment": "MIC determination using broth microdilution method, anaerobic bacteria", "assay_type": "cell-based", "conditions": "ATCC33277; Porphyromonas gingivalis ATCC 33277; broth microdilution, anaerobic, 37° C., 48 h; read-out: MIC", "method": "S5, Culture of Porphyromonas gingivalis strain: • the strain stored at −80° C. was resuscitated in the anaerobic glove box with a Colombian blood agar plate, and statically cultured at 37° C. in the constant-temperature incubator for 5-7 days.\nas §1"}, "H. pylori ATCC 26695 [4]": {"system": "H. pylori ATCC 26695", "experiment": "MIC determination using broth microdilution method, Helicobacter pylori", "assay_type": "cell-based", "conditions": "ATCC26695, H. pylori ATCC 26695(S), metronidazole-susceptible strain, read-out: MIC", "method": "(§2) • 1) A frozen solution stored at −80° C. was taken out, and thawed at room temperature; 100 μL of bacterial solution was taken with a pipette, coated onto a Columbia blood agar plate (finished-product medium), put invertedly in a […] culture box, placed in a micro-aerobic gas production bag to achieve a micro-aerobic environment, and cultured at 37° C. for 2-3 days. • 2) A sterile inoculation ring was used to pick Helicobacter pylori single colonies (transparent water droplets) grown on the Colombian blood agar medium and inoculated in the above liquid medium; and cultured at 37° C. in a micro-aerobic environment for 3 days. • 3) A required concentration (absorbance) for the experiment was reached after culture, and the bacterial solution was taken for subsequent experiments.\n(§3) The drug concentration at which bacteria ceased to grow or grew at the most significant reduction level was referred to as the MIC value."}, "H. pylori ATCC 43504 [5]": {"system": "H. pylori ATCC 43504", "experiment": "MIC determination using broth microdilution method, Helicobacter pylori", "assay_type": "cell-based", "conditions": "Helicobacter pylori, ATCC43504; H. pylori ATCC 43504(R), metronidazole-resistant strain; read-out: MIC", "method": "as §2, §3"}, "H. pylori NCTC 11637": {"system": "H. pylori NCTC 11637", "experiment": "MIC determination using broth microdilution method, Helicobacter pylori", "assay_type": "cell-based", "conditions": "Helicobacter pylori, NCTC11637; H. pylori NCTC 11637(R), metronidazole-resistant strain; read-out: MIC", "method": "as §2, §3"}, "[6]": {"system": "H. pylori Sydney strain SS1", "experiment": "MIC determination using broth microdilution method, Helicobacter pylori", "assay_type": "cell-based", "conditions": "H. pylori Sydney strain SS1, read-out: MIC", "method": "as §2, §3"}, "[7]": {"system": "Clostridioides difficile infection (spores, 027 Type)", "experiment": "Clostridioides difficile infection (CDI) mouse model", "assay_type": "in vivo, C57BL/6 mice", "conditions": "for number of surviving mice: 10 animals per group", "from_the_text": "• 1) Experimental animals: C57BL/6, 4-6 weeks old, female.\nIn order to evaluate the efficacy of the compounds of the present application on Clostridioides difficile infection, an animal model of Clostridioides difficile infection was established, as shown in FIG. 1. […] On Day 0, the mice were administrated with 10^5 CFU/mL of spores by gavage; and on Days 1 and 2, the mice were administrated with 10^6 CFU/mL of spores by gavage. Starting from Day 3, the mice were given 7 days of drug treatment, and all mice were euthanized at the end of the experiment, except for the death of mice during the treatment.\nTwo of the conjugates, SCUT1-2 and SCUT1-6, with the optional in-vitro inhibitory activities were selected. […] The therapeutic effect of the conjugate of the present application in the treatment of Clostridioides difficile infection was evaluated."}, "H. pylori ATCC 43504 [8]": {"system": "H. pylori ATCC 43504", "conditions": "H. pylori ATCC 43504(R); footnote a; cited from earlier work"}, "H. pylori ATCC 26695 [9]": {"system": "H. pylori ATCC 26695", "conditions": "H. pylori ATCC 26695(S); footnote b; cited from earlier work"}, "[10]": {"conditions": "Day 3 (before the administration), 50 mg/kg groups"}}}
{"smiles": "Cc1ncc([N+](=O)[O-])n1CCO", "note": "[Metronidazole]", "values": [{"measurement": "MIC", "setting": "[1]", "value": "1 to 2", "unit": "µg/mL"}, {"measurement": "MIC", "setting": "[2]", "value": "0.25 to 2", "unit": "µg/mL"}, {"measurement": "MIC", "setting": "[3]", "value": 2, "unit": "µg/mL"}, {"measurement": "MIC", "setting": "H. pylori ATCC 26695 [4]", "value": 4, "unit": "µg/mL"}, {"measurement": "MIC", "setting": "H. pylori ATCC 43504 [5]", "value": "> 128", "unit": "µg/mL"}, {"measurement": "MIC", "setting": "H. pylori NCTC 11637", "value": "> 128", "unit": "µg/mL"}, {"measurement": "MIC", "setting": "[6]", "value": 8, "unit": "µg/mL"}, {"measurement": "number of mice with diarrhea", "setting": "[7]; [10]", "value": "9 number of mice"}, {"measurement": "number of surviving mice", "setting": "[7]; [10]", "value": "10 number of mice"}, {"measurement": "number of mice with diarrhea", "setting": "[7]; Day 4, 50 mg/kg", "value": "8 number of mice"}, {"measurement": "number of surviving mice", "setting": "[7]; Day 4, 50 mg/kg", "value": "9 number of mice"}, {"measurement": "number of mice with diarrhea", "setting": "[7]; Day 5, 50 mg/kg", "value": "5 number of mice"}, {"measurement": "number of surviving mice", "setting": "[7]; Day 5, 50 mg/kg", "value": "8 number of mice"}, {"measurement": "number of mice with diarrhea", "setting": "[7]; Day 6, 50 mg/kg", "value": "3 number of mice"}, {"measurement": "number of surviving mice", "setting": "[7]; Day 6, 50 mg/kg", "value": "8 number of mice"}, {"measurement": "number of mice with diarrhea", "setting": "[7]; Day 7, 50 mg/kg", "value": "3 number of mice"}, {"measurement": "number of surviving mice", "setting": "[7]; Day 7, 50 mg/kg", "value": "8 number of mice"}, {"measurement": "number of mice with diarrhea", "setting": "[7]; Day 8, 50 mg/kg", "value": "3 number of mice"}, {"measurement": "number of surviving mice", "setting": "[7]; Day 8, 50 mg/kg", "value": "8 number of mice"}, {"measurement": "number of mice with diarrhea", "setting": "[7]; Day 9, 50 mg/kg", "value": "3 number of mice"}, {"measurement": "number of surviving mice", "setting": "[7]; Day 9, 50 mg/kg", "value": "8 number of mice"}, {"measurement": "probability of survival", "setting": "[7]; after 7 days of drug treatment, 50 mg/kg, Model group 44.44%", "value": 80, "unit": "%"}, {"measurement": "MIC reported in related literatures", "setting": "H. pylori ATCC 43504 [8]", "value": "(64-256)^a μg/mL"}, {"measurement": "MIC reported in related literatures", "setting": "H. pylori ATCC 26695 [9]", "value": "(1-8)^b μg/mL"}]}
